Test results as given in patent US20060062793A1, “Modified antibodies to prostate-specific membrane antigen and uses thereof” (priority 2004, published 2006).

Legend:
[1] = test system: PSMA-positive CWR22 xenografts; experiment: deJ591-DM1 efficacy in PSMA-positive CWR22 xenografts in scid mice; assay type: in vivo, mouse
Procedure: (§1) Experiment: Male SCID mice were implanted by serial passage of CWR22 prostate tumor xenograft. […] All treatments were given intravenously. Tumor growth and animal health were continually monitored throughout the study with tumor growth measured every 3 days.
Experiment: Male C.B-17 SCID mice bearing CWR22 xenografts approximately 200 mm^3 in size received IV injections (200 μL constant volume) of the test articles according to the dose and schedule as shown in Table 22.
Male C.B-17 scid mice bearing CWR22 xenografts approximately 200 mm^3 in size received IV injections (200 μL constant volume) of the test articles according to the dose and schedule shown in the Table 23.
The objective of this study was to determine how much the dosing interval could be increased at this dosage before a loss of efficacy in terms of TGD would be observed. […] The growth delays for the other schedules were: q7d, 53.0 days; q21d, 48.0 days; and q28d, 26.9 days. Similar to other studies using the CWR22 xenograft model, no curative responses were observed, with all tumors eventually resuming growth (FIG. 18).
as §1, with “intravenously and on a schedule of every three days for 5 doses.” for “intravenously.”
as §1, with “intravenously and on a schedule of every seven days for 5 doses.” for “intravenously.”

prostate tissue = experiment: Immunohistochemistry of DOTA conjugated deJ591
Procedure: Immunohistochemistry was performed on the DOTA conjugated, partially purified, bulk intermediate deJ591.

LNCaP tumor sections = assay type: in vivo, mouse
[2] = test system: PSMA-positive human LNCaP tumors; experiment: Biodistribution of 111In labeled MAbs in nude mice bearing LNCaP tumors; assay type: in vivo, mouse
Procedure: (§2) Prior to use, the cells were trypsinized, counted and suspended in Matrigel (Collaborative Biomedical Products, Bedford, Mass.). Nu/Nu Balb C mice 8-10 weeks of age were inoculated, in the right and left flanks, with a suspension of 5×10^6 LNCaP cells in Matrigel (BD Biosciences, Bedford Mass.). After a period of 14-18 days, tumors (100-300 mg) had developed. The PSMA-negative DU145 and PC3 cells were implanted in nude mice in an identical manner.
(§3) The PSMA-positive and PSMA-negative tumor bearing mice were injected, via the tail vein, with 80 KBq of the iodinated MAb (400 MBq/mg) in 200 μL of PBS (pH 7.4, 0.2% BSA). Groups of animals (3-8/group) were sacrificed after 2, 4 or 6 days. The major organs and tumors were recovered. The tissue samples were weighed and counted, with appropriate standards in an automatic NaI(Tl) counter. These measured relative activity data (cpm) were background corrected and expressed as a percentage of the injected dose per gram (% ID/g). […] J415, J591 and 7E11 were labeled with ^111In (100 MBq/mg). 80 KBq of the ^111In labeled MAbs were injected in groups of animals. The % ID/g in various organs and tumor tissues was determined at 2-6 days post injection in a similar way as described for ^131I labeled MAbs.

[3] = test system: androgen-independent PSMA-positive 22RV1 xenograft; experiment: deJ591-DM1 efficacy in castrate or intact scid mice bearing 22RV1 xenograft; assay type: in vivo, mouse
Procedure: Prostate tumors can be broadly classified as either androgen-dependent or androgen-independent. […] The 22RV1 cell line was originally developed as androgen-independent and can be grown as a xenograft in C.B-17 scid mice that have been left either intact or castrated. […] This was approximately twice the time required for the tumors of intact mice to reach 1000 mm^3 (9.3 days). C.B-17 scid mice bearing CWR22 xenografts approximately 200 mm^3 in size received IV injections (200 μL constant volume) of the test articles according to the dosage and schedule shown in the Table 24.

[4] = test system: hormone refractory prostate cancer; experiment: 111In-DOTA-deJ591 targeting of hormone refractory prostate cancer (single 20 mg dose, imaging); assay type: in vivo, human
LNCaP tumor = experiment: Gamma camera imaging of nude mice with 111In-DOTA-J591; assay type: in vivo, mouse; conditions: days 1-6
Procedure: For the imaging studies, animals were injected with 2 MBq of ^111In-DOTA-J591. On days 1, 2, 3, 4 and 6 post-injection, the mice were sedated with ketamine/xylazine 100 mg/kg/10 mg/kg IP. The mice were imaged with a gamma camera (Transcam, ADAC Laboratories, Milpitas, Calif.) equipped with a pinhole collimator. The images were acquired in a 256×256 matrix for 1000 seconds using a 20% window of 245 KeV photopeak of ^111In.

[5] = test system: recurrent, progressing prostate cancer; experiment: Phase I trial of four weekly doses of 111In-DOTA-deJ591; set-up: species or system human; conditions: in vivo
Procedure: Patients with recurrent, progressing prostate cancer received four weekly doses of ^111In-DOTA-deJ591. Doses were escalated in cohorts of three patients and ranged from 62.5-500 mg/m2 (total). […] After the first dose, patients were imaged on the day of injection (day 0) and days 1, 2, 4 and 7.
Serum PK, immune reaction and toxicity were evaluated after each dose for a minimum of 12 weeks.

[6] = test system: hormone-independent prostate cancer; experiment: Phase I trial of trace-labeled 131I-J591 (murine) in hormone-independent prostate cancer patients; assay type: in vivo, human
Procedure: Hormone-independent patients with rising PSA levels and acceptable hematologic, hepatic and renal function received a single dose of murine mAb J591. Doses are escalated (from 0.5-300 mg) in groups of three to six patients. Each dose included ≦1.0 mg J591 labeled with 10 mCi ^131I iodine as a tracer plus “cold” mAb. The dose levels used ranged from 0.5 to 300.0 mg as follows: 0.5 mg, 1.0 mg, 2.0 mg, 5.0 mg, 10 mg, 25 mg, 50 mg, 100 mg, 125 mg, 150 mg, 200 mg, 250 mg, and 300 mg. Blood and urine were collected to monitor pharmacokinetics, toxicity and human anti-mouse antibody (HAMA) response. Patients were imaged on the day of injection (day 0), as well as days 2, 4 and 6 to track mAb targeting.

[7] = test system: PSMA-negative DU145 tumors; assay type: in vivo, mouse; conditions: 4 days post injection, DU145 tumors (n=6)
Procedure: as §2, §3
(§4) The uptake in lungs, kidney, muscle was similar with all three antibodies.

PSMA-negative PC3 tumors = assay type: in vivo, mouse; conditions: 4 days post injection, PC3 tumors (n=10)
Procedure: as §2, §3, §4

[8] = test system: metastatic androgen-independent prostate cancer; experiment: Phase 1 ascending dose trial of DM1 conjugated deJ591 in metastatic androgen-independent prostate cancer; assay type: in vivo, human
Procedure: Based upon emerging clinical safety and PK, repeat dosing at four week intervals was subsequently permitted.
DLT is defined as the occurrence of one or more of the following: • Hematologic: Grade 4 thrombocytopenia (platelet count <10,000/mm3) • Requirement for platelet transfusion and/or other methods to increase platelet count • Febrile neutropenia (ANC<1000/mm^3 concurrent with a temperature >38.5° C.). (Per the Infection/Febrile Neutropenia subsection of the NCI CTC version 2.0, febrile neutropenia is, by definition, a >Grade 3 toxicity) • Grade 4 neutropenia without fever of >7 days duration • Grade 3 neutropenia requiring granulocyte colony-stimulating factor (G-CSF) administration • Grade 4 anemia (hemoglobin <6.5 g/dL) • Grade 3 anemia (hemoglobin 6.5-<8.0 g/dL) in a subject receiving EpogenÒNon-hematologic • Any Grade 3 non-hematologic toxicity considered by the investigator to be possibly related to study drugMTD is defined as the highest dose level with an observed incidence of DLT in no more than 1 out of 6 subjects. […]
The starting dose is 18 mg/m2. […] Dose escalation will continue until DLT and MTD are determined. […] Subsequent dose escalation and enrollment will be determined by the number and grade of toxicities observed in these two additional subjects. […] The previous dose level will be evaluated as potential MTD. […]

[9] = 14.5 mg/kg, 7 and 14 day dosing interval

COc1cc2cc(c1Cl)N(C)C(=O)C[C@H](OC(=O)[C@H](C)N(C)C(C)=O)[C@]1(C)O[C@H]1[C@H](C)[C@@H]1C[C@@](O)(NC(=O)O1)[C@H](OC)/C=C/C=C(\C)C2 [Maytansine, reference compound]
Tumor Growth Delay ([1]; 240 μg/kg (240 μg/kg DM1-equivalents), qdX5, IV, Comparison I): 17.7 days

DOTA-deJ591
tissue specificity by immunohistochemistry (prostate tissue): specific to prostate tissue
reactivity by immunohistochemistry (prostate tissue; compared with naked deJ591): equivalent to the naked deJ591 antibody

J591: murine monoclonal antibody to the extracellular domain of human PSMA; hybridoma ATCC HB-12126
intra-tumoral distribution pattern (LNCaP tumor sections; 131I-labeled, 4 to 6 days after intravenous injection): distinct preferential accumulation in areas of viable tumor
kinetics of blood clearance [2]: faster compared to 7E11

MLN2704
Tumor Growth Delay ([3]; Castrate mice, 22RV1 xenograft, 240 μg/kg DM1-equivalents, q7dX5): 21.4 days

^111In-DOTA-deJ591
Plasma clearance (T1/2) ([4]; 20 mg deJ591): 34 ± 5 h
Liver uptake ([4]; day 6): 27±1.7%
accumulation in the prostate gland ([4]; patients with intact but irradiated prostate): generally minimal
absorbed dose by the liver ([4]; with 111In): 2.8±0.25 rads/mCi
tumor accumulation on serial gamma camera images (LNCaP tumor): intense tumor accumulation
mAb targeting to non-prostate cancer sites [5]: No mAb targeting to non-prostate cancer sites was noted

^131I-J591: murine mAb J591 labeled with 131I iodine
binding pattern, ex vivo autoradiography (LNCaP tumor sections; incubated directly on the tissue section): homogeneous binding pattern
adverse events related to the murine antibody ([6]; 33 patients): Only one patient had an adverse event related to the murine antibody
positive monoclonal antibody scans among patients with positive soft tissue (CT scans) ([6]; eight out of nine): about 90%
human anti-murine antibody (HAMA) response ([6]; human, in vivo): Eight out of sixteen evaluable patients
patients in whom known sites of prostate cancer metastases can be imaged ([6]; patients with disease sites imaged by conventional studies): approximately 80%
positive monoclonal antibody scans among patients with positive bone scans ([6]; twenty-four out of twenty-seven): about 90%

^131I-deJ591
tumor uptake [7]: 0.55±0.03 % ID/g
tumor uptake (PSMA-negative PC3 tumors): 0.66±0.07 % ID/g

deJ591-DM1: deJ591 conjugated via SPP disulfide linker to the maytansinoid cytotoxin DM1
dose-limiting toxicity ([8]; highest dose level 343 mg/m^2): Only one DLT, an uncomplicated febrile neutropenia
tumor response ([8]; one patient, 264 mg/m^2): PR by RECIST criteria
resumption of normal growth kinetics after the last dose [1, 9]: approximately 30 days
tumor growth [1, 9]: apparent block in tumor growth
suppression of tumor growth following the last administered dose ([1]; 14.5 mg/kg, every three days for 5 doses, IV): approximately 20 days
Efficacious dosage in SCID mouse xenografts, DM1-Equivalents received ([1]; SCID mouse xenografts, DM1-equivalents): ˜0.72 mg/m^2
tumor growth inhibitory effect ([1]; doses and schedules of Comparison I, non-curative): substantial tumor growth inhibitory effect
effect on large tumors (500 to 2000 mm^3) ([1]; second course, 12.93 mg/kg): potent regressions in large tumors
TGD compared to DM1 at equivalent dose and schedule ([3]; androgen-intact mice, q3d schedule): better TGD
